Measured values from patent US8048908B2, “11β-hydroxysteroid dehydrogenase type 1 active compounds” (High Point Pharmaceuticals, LLC, priority 2006, dated 2011).

Columns and labels:
h-11βHSD1 = target: T1, h-11βHSD1 (Homo sapiens, UniProt P28845); experiment: 11βHSD1 Enzyme Assay (scintillation proximity assay); assay type: biochemical; settings: yeast extract expressing h-11βHSD1, 120 nM 3H-cortisone, 4 mM β-NADPH, 60 min at 30° C.
T1 construct: made in house
Experimental: ^3H-cortisone and anti-rabbit Ig coated scintillation proximity assay (SPA) beads were purchased from Amersham Pharmacia Biotech, —NADPH was from Sigma and rabbit anti-cortisol antibodies were from Fitzgerald. An extract of yeast transformed with h-11βHSD1 (Hult et al., FEBS Lett., 441, 25 (1998)) was used as the source of enzyme. The test compounds were dissolved in DMSO (10 mM). All dilutions were performed in a buffer containing 50 mM TRIS-HCl (Sigma Chemical Co), 4 mM EDTA (Sigma Chemical Co), 0.1% BSA (Sigma Chemical Co), 0.01% Tween-20 (Sigma Chemical Co) and 0.005% bacitracin (Novo Nordisk A/S), pH=7.4. Optiplate 96 wells plates were supplied by Packard. The amount of ^3H-cortisol bound to the SPA beads was measured on Top-Count NXT, Packard.
h-11βHSD1, 120 nM ^3H-cortisone, 4 mM β-NADPH, antibody (1:200), serial dilutions of test compound and SPA particles (2 mg/well) were added to the wells. The reaction was initiated by mixing the different components and was allowed to proceed under shaking for 60 min at 30° C. The reaction was stopped be the addition of 10 fold excess of a stopping buffer containing 500 μM carbenoxolone and 1 μM cortisone. Data was analysed using GraphPad Prism software.

11βHSD1 = target: T2, 11βHSD1 (Homo sapiens, UniProt P28845); settings: lean healthy volunteers and people with type 2 diabetes; cited from earlier work
T2 construct: host or cells: human subjects (in vivo)
T2 sequence (P28845 whole entry): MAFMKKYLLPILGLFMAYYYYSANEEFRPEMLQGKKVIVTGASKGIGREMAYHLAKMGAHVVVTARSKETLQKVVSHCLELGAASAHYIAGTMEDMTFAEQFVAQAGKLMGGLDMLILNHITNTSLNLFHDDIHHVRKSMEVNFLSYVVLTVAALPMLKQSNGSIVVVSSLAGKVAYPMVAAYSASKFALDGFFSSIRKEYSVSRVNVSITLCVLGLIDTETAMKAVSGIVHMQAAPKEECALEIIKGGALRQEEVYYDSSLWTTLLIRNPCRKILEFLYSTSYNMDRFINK

T1 sequence (P28845 whole entry): as above

| SMILES | IC50 (h-11βHSD1) | insulin sensitivity (11βHSD1) |
| --- | --- | --- |
| CC1(C)CC2CC(C)(CN2C(=O)c2ccc(N3CCC(C(=O)NC4CCC(O)CC4)C3)cc2)C1 (stereo not shown) [Example 1-7, 1-[4-(1,3,3-Trimethyl-6-aza-bicyclo[3.2.1]octane-6-carbonyl)-phenyl]-pyrrolidine-3-carboxylic acid (4-hydroxy-cyclohexyl)-amide] | 125 nM |  |
| CN(C(=O)C1CC1)C1CCN(c2ccc(C(=O)N3CC4CCC(CC4)C3)cc2)C1 (stereo not shown) [Example 1-31, Cyclopropanecarboxylic acid {1-[4-(3-aza-bicyclo[3.2.2]-nonane-3-carbonyl)-phenyl]-pyrrolidin-3-yl}-methyl-amide] | 128 nM |  |
| CN(C1CCN(c2ccc(C(=O)N3CC4CCC(CC4)C3)cc2)C1)S(=O)(=O)Cc1ccccc1 (stereo not shown) [Example 1-33, N-{1-[4-(3-Aza-bicyclo[3.2.2]-nonane-3-carbonyl)-phenyl]-pyrrolidin-3-yl}-N-methyl-phenyl-methanesulfonamide] | 43 nM |  |
| CC1(C)[C@@H](OC(=O)CCC(=O)O)CC[C@]2(C)[C@H]3C(=O)C=C4[C@@H]5C[C@@](C)(C(=O)O)CC[C@]5(C)CC[C@@]4(C)[C@]3(C)CC[C@@H]12 [carbenoxolone] |  | improves insulin sensitivity |
